The results in this text go back to US20210116454A1, “METHODS FOR TREATING A HEMATOLOGICAL CANCER AND THE USE OF COMPANION BIOMARKERS FOR 2-(2,6-DIOXOPIPERIDIN-3-YL)-4-((2-FLUORO-4-((3-MORPHOLINOAZETIDIN-1-YL)METHYL)BENZYL)AMINO)ISOINDOLINE-1,3-DIONE” (CELGENE CORPORATION, priority 2019, published 2021).

Structures are written as SMILES. Where two headings read alike, the source gives them in different places.

In experiment [1] the test system is SU-DHL-4. As to the kind of experiment: CellTiter-Glo (CTG) antiproliferative assay, 5-day. Format: cell-based. Conditions: for antiproliferative activity (in words): SU-DHL-4, CellTiter-Glo. The procedure: To evaluate the activity of both Compound 1 and Compound 2 in DLBCL cells, a CellTiter-Glo (CTG) assay was performed to measure the antiproliferative activity.

In experiment [2] the target is cereblon (CRBN) (Homo sapiens, UniProt Q96SW2). As to the kind of experiment: Cereblon binding TR-FRET ligand competition assay. Conditions: 10 to 20 minutes, n=5. The procedure: To investigate whether Compound 1 and its R-enantiomer Compound 2 could bind to cereblon, a short duration (10 to 20 minutes) ligand competition assay was used.
(In TR-FRET formats the signal depends on donor and acceptor labels being close together.)

In experiment [3] the target is T1, Aiolos (Homo sapiens, UniProt Q96SW2+Q9UKT9).
T1 construct: expressed in transfected cells; host or cells: DF15 cells
As to the kind of experiment: ePL-tagged substrate degradation kinetics in DF15 cells (enantiomer comparison). The experiment is classed as cell-based. Also noted: Aiolos Y-constant: scale not given here. Conditions: for DC50: read-out: Aiolos EC50. The procedure: (§1) In a second assay, DF15 cell lines expressing ePL-tagged target protein substrates were used as a model system to monitor protein degradation at 0.75, 1, 1.5, 3, 4, and 24 hours over a concentration range from 1 pM to 10 μM. The proteins evaluated were Ikaros (FIG. 17), Aiolos, and ZFP91. Compound 1 and Compound 2 were both able to degrade the substrate proteins at all time points (Table 9). In a further assay, additional time points were included to monitor the effect of treatment with Compound 1 and Compound 2.
(§2) The depth of substrate protein degradation described by the Y-constant was also measured in this assay against a negative control luciferase inhibitor (CC1071297, Y-constant=0).

The target of experiment [4] is T2, ZFP91 (Homo sapiens, UniProt Q96JP5+Q96SW2).
T2 construct: expressed in transfected cells; host or cells: DF15 cells
Described as above. The experiment is classed as cell-based. Also noted: ZFP91 Y-constant: scale not given here. The conditions noted are these: for DC50: read-out: ZFP91 EC50. The protocol: as §1, §2

Experiment [5] has as its system SU-DHL-2 cells. Description: Western blot of substrate degradation by each enantiomer, short time-course. The experiment is classed as cell-based. Conditions: SU-DHL-2, higher concentrations and longer exposure. The procedure:
Pure samples of each enantiomer were tested for cellular degradation of substrate proteins measured over a short time-course (FIG. 16). SU-DHL-2 cells were treated for 1, 2, and 6 hours with vehicle control (0.1% DMSO), Compound 1 (1, 10, 100 nM), or Compound 2 (1, 10, 100 nM). Western blot analysis was used to evaluate the extent of degradation of the protein substrates Aiolos, Ikaros, and ZFP91. Compound 1 inhibited Aiolos, Ikaros, and ZFP91 in as early as 1 hour of treatment with as little as 1 nM.
Background: Immunoblotting shows a protein as a band on a membrane.

For experiment [6], the target named is Ikaros (Homo sapiens, UniProt Q13422+Q96SW2). As to the kind of experiment: ePL-tagged substrate degradation kinetics in DF15 cells (enantiomer comparison). Format: cell-based. Also noted: expressed in transfected cells; host or cells: DF15 cells; Ikaros Y-constant: scale not given here. Conditions: for DC50: read-out: Ikaros EC50. The procedure: as §1, §2
The test system of experiment [7] is DB. Description: 5-day viable cell number and apoptosis (7-AAD exclusion/Annexin V flow cytometry). Format: cell-based. Conditions: Homo sapiens; DB cells (Table 3). The source says: (§3) The DLBCL panel includes seven cell lines classified as activated B-cell (ABC) subtype, thirteen cell lines classified as the germinal center B-cell (GCB) subtype, and three cell lines classified as primary mediastinal B-cell lymphoma (PMBL). […] The translocation of MYC, BCL6, or BCL2 to an IG locus usually leads to high levels of mRNA and protein due to the active transcription driven by a constitutively active IG promoter. […] Expressions of CRBN protein and known substrates, Ikaros, Aiolos, and ZFP91 were also evaluated (FIG. 1, panels B and C).
(§4) The panel of cell lines were treated with increasing doses of compounds for five days, at which time the number of viable cells was measured and the amount of apoptosis was determined by 7-AAD exclusion and Annexin V staining using flow cytometry.
In general terms: A flow cytometer gives signals particle by particle.

Experiment [8] relates to Farage. The description is as above. Format: cell-based. Conditions: Farage cells (Table 3); read-out: IC50.
Description: as §3, §4

The subject of experiment [9] is HT. The description is as above. The experiment is classed as cell-based. The conditions noted are these: Homo sapiens; HT cells (Table 3); read-out: IC50.
Description: as §3, §4

Experiment [10] concerns KARPAS-1106P. Described as above. Format: cell-based. The conditions noted are these: Homo sapiens; KARPAS-1106P cells (Table 3); read-out: IC50.
Description: as §3, §4

Experiment [11] concerns KARPAS-422. The experiment is described as above. Conditions: Homo sapiens; KARPAS-422 cells (Table 3); read-out: IC50. Format: cell-based.
Description: as §3, §4

The subject of experiment [12] is OCI-LY-7. The description is as above. Format: cell-based. Conditions: Homo sapiens, OCI-Ly7; OCI-LY-7 cells (Table 3); read-out: IC50.
Description: as §3, §4

For experiment [13], the system named is OCI-Ly10. Described as above. The experiment is classed as cell-based. Conditions: Homo sapiens; OCI-Ly10 cells (Table 3); read-out: IC50.
Description: as §3, §4

Experiment [14] deals with Pfeiffer. The description is as above. Conditions: Homo sapiens; Pfeiffer cells (Table 3). Format: cell-based.
Description: as §3, §4

For experiment [15], the system named is RC-K8. Described as above. Conditions: Homo sapiens, RCK8; RC-K8 cells (Table 3); read-out: IC50. The experiment is classed as cell-based.
Description: as §3, §4

Experiment [16] relates to RIVA. The experiment is described as above. The experiment is classed as cell-based. Conditions: RIVA cells (Table 3); read-out: IC50.
Description: as §3, §4

Experiment [17] deals with SU-DHL-10. Described as above. Format: cell-based. The conditions noted are these: Homo sapiens, SU-DHL10; SU-DHL-10 cells (Table 3); read-out: IC50.
Description: as §3, §4

In experiment [18] the test system is SU-DHL-16. Described as above. Format: cell-based. The conditions noted are these: Homo sapiens; SU-DHL-16 cells (Table 3); read-out: IC50.
Description: as §3, §4

Experiment [19] relates to SU-DHL-2. The description is as above. The conditions noted are these: Homo sapiens; SU-DHL-2 cells (Table 3); read-out: IC50. The experiment is classed as cell-based.
Description: as §3, §4

Experiment [20] has as its system SU-DHL-4. The experiment is described as above. Format: cell-based. The conditions noted are these: Homo sapiens; SU-DHL-4 cells (Table 3); read-out: IC50.
Description: as §3, §4

Experiment [21] has as its system SU-DHL-8. Described as above. Format: cell-based. Conditions: Homo sapiens; SU-DHL-8 cells (Table 3); read-out: IC50.
Description: as §3, §4

Experiment [22] deals with U2932. The description is as above. The experiment is classed as cell-based. Conditions: Homo sapiens; U2932 cells (Table 3); read-out: IC50.
Description: as §3, §4

The subject of experiment [23] is WSU-DLCL2. The description is as above. The experiment is classed as cell-based. Conditions: Homo sapiens, WSUDLCL2; WSU-DLCL2 cells (Table 3); read-out: IC50.
Description: as §3, §4

On to `O=C1CCC(N2C(=O)c3cccc(NCc4ccc(CN5CC(N6CCOCC6)C5)cc4F)c3C2=O)C(=O)N1` (racemic) [Compound 3, 2-(2,6-Dioxopiperidin-3-yl)-4-((2-fluoro-4-((3-morpholinoazetidin-1-yl)methyl)benzyl)amino)isoindoline-1,3-dione], for which the “antiproliferative activity (in words)” value in experiment [1] is recorded as “Potent antiproliferative activity”.

The term IC50 denotes the concentration that gives 50% inhibition. Consider `O=C1CC[C@@H](N2C(=O)c3cccc(NCc4ccc(CN5CC(N6CCOCC6)C5)cc4F)c3C2=O)C(=O)N1` [Compound 2, (R)-2-(2,6-dioxopiperidin-3-yl)-4-((2-fluoro-4-((3-morpholinoazetidin-1-yl)methyl)benzyl)amino)isoindoline-1,3-dione], for which the IC50 is 0.032 µM in [1] (Homo sapiens, 120 h, SU-DHL-4, 5-day assay, n = 6) and 10.2 ± 1 µM in experiment [2]. For the same compound, in experiment [1], the “antiproliferative activity (in words)” value was “Potent antiproliferative activity”. Also, the “Aiolos Y-constant” value in [3] (0.75 hours) is recorded as 54; in [3] (1 hour), 37; in experiment [3] (1.5 hours), 15; in experiment [3] (3 hours) it was 3.5; in experiment [3] (4 hours), 3.5; in experiment [3] (24 hours), 3.8. Besides, the DC50 in experiment [3] (0.75 hours) was found to be 0.038 µM; in experiment [3] (1 hour), 0.024 µM; in [3] (1.5 hours), 0.017 µM; in experiment [3] (3 hours) it was 0.01 µM; in experiment [3] (4 hours), 0.0073 µM; in [3] (24 hours) it was 0.0053 µM. The DC50 was found to be 0.029 µM in experiment [4] (0.75 hours); 0.025 µM in experiment [4] (1 hour); 0.016 µM in experiment [4] (1.5 hours); 0.0045 µM in experiment [4] (3 hours); 0.0026 µM in experiment [4] (4 hours); 0.00035 µM in experiment [4] (24 hours). Further, the DC50 was determined as 0.0397 µM in experiment [6] (0.75 hours); 0.027 µM in [6] (1 hour); 0.0225 µM in [6] (1.5 hours); 0.00888 µM in experiment [6] (3 hours); 0.00731 µM in experiment [6] (4 hours); 0.0007 µM in experiment [6] (24 hours). Also, the “ZFP91 Y-constant” value stood at 41 in [4] (0.75 hours); 22 in experiment [4] (1 hour); 10 in experiment [4] (1.5 hours); 4.6 in experiment [4] (3 hours); 4.1 in experiment [4] (4 hours); 2.5 in experiment [4] (24 hours). The “expression of Aiolos, Ikaros, and ZFP91” value in experiment [5] is reported as “decreased expression”. For the same compound, the “Ikaros Y-constant” value in experiment [6] (0.75 hours) is 47.0; in experiment [6] (1 hour), 34.4; in experiment [6] (1.5 hours), 15.3; in [6] (3 hours) it was 7.3; in [6] (4 hours), 5.5; in experiment [6] (24 hours), 2.4.

Consider `CC1(C)CCC(CN2CCN(c3ccc(C(=O)NS(=O)(=O)c4ccc(NCC5CCOCC5)c([N+](=O)[O-])c4)c(Oc4cnc5[nH]ccc5c4)c3)CC2)=C(c2ccc(Cl)cc2)C1` [Venetoclax, 4-(4-{[2-(4-chlorophenyl)-4,4-dimethylcyclohex-1-en-1-yl]methyl}piperazin-1-yl)-N-({3-nitro-4-[(tetrahydro-2H-pyran-4ylmethyl)amino]phenyl}sulfonyl)-2-(1H-pyrrolo[2,3-b]pyridin-5-yloxy)benzamide, reference compound], for which the IC50 came out at 82 µM in [7]; 560 µM in experiment [8]; 644 µM in experiment [9]; 200 µM in experiment [10]; 75 µM in experiment [11]; 1010 µM in experiment [12]. Besides, the IC50 in experiment [13] came to 200 µM; in experiment [14], 432 µM; in experiment [15], 609 µM; in experiment [16] it was 5 µM; in experiment [17], 454 µM; in experiment [18], 21 µM. The IC50 in experiment [19] came out at 355 µM; in experiment [20], 145 µM; in [21], 548 µM; in experiment [22] it was 230 µM; in experiment [23], 215 µM.
